Test results taken from ChEMBL document CHEMBL5512630, “The mechanism of UNC-51-like kinase 1 and the applications of small molecule modulators in cancer treatment” (Eur J Med Chem, 2024).

What was measured:
[1] = target: T1, Serine/threonine-protein kinase ULK1 (Homo sapiens) (UniProt O75385); assay: Inhibition of ULK1 (unknown origin) relative to control; settings: concentration not given here
T1 sequence (whole entry): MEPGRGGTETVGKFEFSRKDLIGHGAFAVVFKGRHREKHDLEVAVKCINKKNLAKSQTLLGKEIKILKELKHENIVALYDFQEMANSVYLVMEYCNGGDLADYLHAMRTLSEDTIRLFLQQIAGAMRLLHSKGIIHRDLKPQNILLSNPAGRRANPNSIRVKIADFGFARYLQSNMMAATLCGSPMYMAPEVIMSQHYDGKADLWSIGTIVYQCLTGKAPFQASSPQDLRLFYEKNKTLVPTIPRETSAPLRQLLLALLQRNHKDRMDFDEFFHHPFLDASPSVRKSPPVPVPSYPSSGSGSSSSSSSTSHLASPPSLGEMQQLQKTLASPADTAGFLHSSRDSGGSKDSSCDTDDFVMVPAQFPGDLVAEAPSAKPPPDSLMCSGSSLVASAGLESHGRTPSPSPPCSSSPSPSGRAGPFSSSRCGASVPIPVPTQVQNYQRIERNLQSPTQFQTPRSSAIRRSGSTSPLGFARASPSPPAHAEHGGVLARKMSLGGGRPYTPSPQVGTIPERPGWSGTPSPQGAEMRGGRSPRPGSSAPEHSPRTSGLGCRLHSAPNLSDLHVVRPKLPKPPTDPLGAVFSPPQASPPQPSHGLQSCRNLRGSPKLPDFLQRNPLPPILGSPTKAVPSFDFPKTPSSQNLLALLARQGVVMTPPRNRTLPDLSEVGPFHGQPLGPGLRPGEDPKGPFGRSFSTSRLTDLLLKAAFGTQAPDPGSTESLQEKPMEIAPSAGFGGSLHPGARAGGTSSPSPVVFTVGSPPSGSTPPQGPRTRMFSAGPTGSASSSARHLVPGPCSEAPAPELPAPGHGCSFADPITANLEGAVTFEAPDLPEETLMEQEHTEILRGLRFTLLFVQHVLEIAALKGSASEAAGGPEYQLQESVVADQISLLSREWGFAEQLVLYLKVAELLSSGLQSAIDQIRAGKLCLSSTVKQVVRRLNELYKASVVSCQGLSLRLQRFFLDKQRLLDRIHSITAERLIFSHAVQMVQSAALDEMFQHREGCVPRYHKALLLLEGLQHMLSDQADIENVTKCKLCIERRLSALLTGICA

[2] = tested on: Non-small cell lung cancer cell line; assay: Antiproliferative activity against Non-small cell lung cancer cells (unknown origin); type: functional, cell-based

inhibition [1] | Structure (SMILES) | IC50 [2]
75% | O=c1c(O)c(-c2ccc(O)c(O)c2)oc2cc(O)ccc12 | 
 | C=CC(=O)Nc1cc(Nc2nccc(-c3cn(C)c4ccccc34)n2)c(OC)cc1N(C)CCN(C)C [OSIMERTINIB] | 41 nM
